# How the values were obtained:
# [1] = tested on: Salmonella typhimurium; test: Antimutagenic activity against 2-aminoanthracene-induced revertant colonies in Salmonella typhimurium TA100 assessed as number of revertant colonies measured pretreatment at 9 uM (reference value: 481.3 +/- 5.3) in presence of mammalian S9 fraction; assay type: functional, Salmonella enterica subsp. enterica serovar Typhimurium
# [2] = tested on: Salmonella typhimurium; test: Antimutagenic activity against 2-aminoanthracene-induced revertant colonies in Salmonella typhimurium TA100 assessed as number of revertant colonies measured pretreatment at 18 uM (reference value: 481.3 +/- 5.3) in presence of mammalian S9 fraction; assay type: functional, Salmonella enterica subsp. enterica serovar Typhimurium
# [3] = tested on: Salmonella typhimurium; test: Antimutagenic activity against sodium azide-induced revertant colonies in Salmonella typhimurium TA100 assessed as number of revertant colonies measured cotreatment at 90 uM (reference value: 1588 +/- 55.6) in absence of mammalian S9 fraction; assay type: functional, Salmonella enterica subsp. enterica serovar Typhimurium
# [4] = tested on: Salmonella typhimurium; test: Antimutagenic activity against sodium azide-induced revertant colonies in Salmonella typhimurium TA100 assessed as number of revertant colonies measured cotreatment at 900 uM (reference value: 1588 +/- 55.6) in absence of mammalian S9 fraction; assay type: functional, Salmonella enterica subsp. enterica serovar Typhimurium
# [5] = tested on: Salmonella typhimurium; test: Antimutagenic activity against 2-aminoanthracene-induced revertant colonies in Salmonella typhimurium TA100 assessed as number of revertant colonies measured cotreatment at 18 uM (reference value: 457.9 +/- 16.74) in presence of mammalian S9 fraction; assay type: functional, Salmonella enterica subsp. enterica serovar Typhimurium
# [6] = tested on: Escherichia coli; test: Antimutagenic activity against methyl methansulfonate-induced revertant colonies in Escherichia coli WP2uvrA assessed as number of revertant colonies measured pretreatment at 90 uM (reference value: 466.7 +/- 40.4) in absence of mammalian S9 fraction; assay type: functional
# [7] = tested on: Escherichia coli; test: Antimutagenic activity against 2-aminoanthracene-induced revertant colonies in Escherichia coli WP2uvrA assessed as number of revertant colonies measured pretreatment at 9 uM (reference value: 178.7 +/- 11.8) in presence of mammalian S9 fraction; assay type: functional
# [8] = tested on: Escherichia coli; test: Antimutagenic activity against 2-aminoanthracene-induced revertant colonies in Escherichia coli WP2uvrA assessed as number of revertant colonies measured pretreatment at 180 uM (reference value: 178.7 +/- 11.8) in presence of mammalian S9 fraction; assay type: functional
# [9] = tested on: Escherichia coli; test: Antimutagenic activity against methyl methansulfonate-induced revertant colonies in Escherichia coli WP2uvrA assessed as number of revertant colonies measured cotreatment at 18 uM (reference value: 485.3 +/- 17.5) in absence of mammalian S9 fraction; assay type: functional
# [10] = tested on: Escherichia coli; test: Antimutagenic activity against 2-aminoanthracene-induced revertant colonies in Escherichia coli WP2uvrA assessed as number of revertant colonies measured cotreatment at 9 uM (reference value: 366 +/- 10.3) in presence of mammalian S9 fraction; assay type: functional
# [11] = tested on: Escherichia coli; test: Antimutagenic activity against 2-aminoanthracene-induced revertant colonies in Escherichia coli WP2uvrA assessed as number of revertant colonies measured cotreatment at 18 uM (reference value: 366 +/- 10.3) in presence of mammalian S9 fraction; assay type: functional
# [12] = tested on: Escherichia coli; test: Antimutagenic activity against methyl methansulfonate-induced revertant colonies in Escherichia coli WP2uvrA assessed as number of revertant colonies measured post-treatment at 9 uM (reference value: 726.7 +/- 12.7) in absence of mammalian S9 fraction; assay type: functional
# [13] = tested on: Escherichia coli; test: Antimutagenic activity against methyl methansulfonate-induced revertant colonies in Escherichia coli WP2uvrA assessed as number of revertant colonies measured post-treatment at 18 uM (reference value: 726.7 +/- 12.7) in absence of mammalian S9 fraction; assay type: functional
# [14] = tested on: Escherichia coli; test: Antimutagenic activity against 2-aminoanthracene-induced revertant colonies in Escherichia coli WP2uvrA assessed as number of revertant colonies measured post-treatment at 9 uM (reference value: 308 +/- 4) in presence of mammalian S9 fraction; assay type: functional
# [15] = tested on: Escherichia coli; test: Antimutagenic activity against 2-aminoanthracene-induced revertant colonies in Escherichia coli WP2uvrA assessed as number of revertant colonies measured post-treatment at 180 uM (reference value: 308 +/- 4) in presence of mammalian S9 fraction; assay type: functional
# [16] = tested on: Salmonella typhimurium; test: Antimutagenic activity against 1-nitropyrene-induced revertant colonies in Salmonella typhimurium TA98 assessed as inhibition of mutagenicity measured at 90 to 180 uM; assay type: functional, Salmonella enterica subsp. enterica serovar Typhimurium
# [17] = tested on: Salmonella typhimurium; test: Antimutagenic activity against 1-nitropyrene-induced revertant colonies in Salmonella typhimurium TA98 1,8 DNP assessed as inhibition of mutagenicity measured at 9 to 18 uM; assay type: functional, Salmonella enterica subsp. enterica serovar Typhimurium
# [18] = tested on: Salmonella typhimurium; test: Antimutagenic activity against 1-nitropyrene-induced revertant colonies in Salmonella typhimurium TA98 1,8 DNP assessed as inhibition of mutagenicity measured at 900 uM; assay type: functional, Salmonella enterica subsp. enterica serovar Typhimurium; conditions: Salmonella enterica
structure (smiles),measurement,setting,value
CCCCCC/C(C=O)=C\c1ccccc1,Activity,[1],465.3
same,Activity,[2],453.3
same,Activity,[3],1477
same,Activity,[4],1451
same,Activity,[5],446
same,Activity,[6],436
same,Activity,[7],170.7
same,Activity,[8],147
same,Activity,[9],485.3
same,Activity,[10],336.8
same,Activity,[11],330.7
same,Activity,[12],528
same,Activity,[13],524
same,Activity,[14],294.7
same,Activity,[15],302.7
same,inhibition (INH),[16],25%
same,inhibition (INH),[17],<25%
same,inhibition at 900 µM,[18],> 40%
